Test [1] has as its system volunteer suffering from diabetes. Kind of test: sugar curve after dietic breakfast in volunteer with diabetes in a light form. Type of test: in vivo, human. On the procedure:
Volunteer (body weight 89 kg) suffered from diabetes in a light form for 10 years. The blood sugar level in the morning on empty stomach was varied from 125 to 190 mg%. On recommendation of the endocrinologist, they were treated with maninyl in a dose of from 0.00125 to 0.0025 g (1/4-1/2 of a tablet) a day. 6 tests were performed including 1 control sugar curve at the background of administration of a dietic breakfast, the 2-nd test--the same curve but with administration, during breakfast, of 0.00125 g of maninyl and 4 tests with the preparation according to the present invention. The doses of insulin in the plates of the preparation of this invention were […]. The duration of resorption of the plates was 9 to 36 minutes. The breakfast was 9-37 minutes thereafter.
The sugar curve obtained after the control test against the background of having a dietic breakfast without hypoglycemic remedies had the following character: the starting blood sugar level was 125 mg%; after 30 minutes since the breakfast--153 mg%; 60 minutes thereafter--155 mg%, 2 hours thereafter--135 mg%, i.e., after 30 and 60 minutes, the blood sugar level was increased by 22 and 24% respectively relative to the initial value.
In a week, the test was repeated; however, during the dietic breakfast, the volunteer was administered 0.00125 g of maninyl (1/4 of a tablet). […] The absolute level of blood sugar was as high as 200 mg%. After 120 minutes, a high blood sugar level was retained--170 mg% which was by 10% higher than the initial value on the same day of investigation.
One week afterwards, the experiment was repeated. The initial level of blood sugar was equal to 190 mg%. The volunteer was administered a plate of the preparation of this invention containing 16 units of insulin (test dose) sublingually; 30 minutes thereafter, the volunteer had breakfast (dietic one). 30 minutes after the breakfast, the blood sugar level was increased up to 200 mg% (by 5% altogether) which was by 17% below the raise in the control test; after 60 minutes--by 26% (240 mg%) which substantially corresponded to the level raise in the control investigation (+2%) and after 120 minutes--reduced by 8% of the initial value (175 mg%) which was by 16% below the level in the control test.

Test [2] concerns volunteer patients-physicians. Kind of test: sugar curve after glucose load per os (0.7 g/kg) in volunteers. Type of test: in vivo, human. The note with it: for decrease in the blood sugar level as compared to the control sugar curve: subcutaneous 16 units (after volunteer I.). The method, then: The pharmaceutical preparation for the treatment of diabetes mellitus has been studied on volunteer patients-physicians. The experiments have been performed on 8 volunteers. 58 tests were carried out including 9 control tests without administration of insulin, 6 control tests with subcutaneous administration of insulin and 43 experimental tests with the administration of plates of the preparation according to the present invention. The control investigation--a sugar curve--has been taken for every volunteer. This involved determination of the blood sugar level in an empty stomach, whereafter the patient was administered glucose per os at the rate of 0.7 g/kg of the body weight diluted with 200 ml of warm water and then the blood sugar level was determined after 30, 60 and 120 minutes. Therefore, in this manner, the blood sugar level variations were determined under the effect of administration of gluclose including the determination of the maximum increase as a percentage of the starting sugar level in blood in the empty-stomach state. After 1-2 weeks, the investigation with a similar sugar load was repeated simultaneously with subcutaneous administration of crystalline insulin at the rate of 0.1-0.2 unit/kg of the body weight right after the administration of the same dose of glucose. After an additional 1-2 weeks, the investigation with the preparation according to the present invention has been carried out. The preparation according to the present invention in the form of plates of a polymer was placed under the tongue by application of the plates to the lower lingual surface at its root or at any other suitable place of the mucous membrane of the mouth cavity. The content of insulin in the plates was varied from 8 to 150 units. After a complete resorption of the plate, maximum within 60 minutes, the volunteer was given a standard dose of glucose per os. The blood examination for sugar has been performed on an empty stomach after 30, 60 and 120 minutes since the glucose administration. The hypoglycemic effect of the test preparations was evaluated by the difference in sugar levels in blood (%) as compared to the control test (without insulin).

The subject of a further test is patients. The note with it: subcutaneous (sometimes intramuscular) injection, majority of patients; cited from earlier work.

Consider `COc1ccc(Cl)cc1C(=O)NCCc1ccc(S(=O)(=O)NC(=O)NC2CCCCC2)cc1` [maninyl], for which the “raise of the sugar curve, % of the initial value” in test [1] (0.00125 g during dietic breakfast, after 30 and 60 minutes, starting level 155 mg%) is reported as “+29%”. Further, the “blood sugar level higher than the initial value” in test [1] (0.00125 g during dietic breakfast, after 120 minutes) worked out at 10%. The “absolute level of blood sugar (as high as)” value in test [1] (0.00125 g during dietic breakfast, starting level 155 mg%) stood at 200 mg%. Further, the “hypoglycemic effect (in words)” value in test [1] (dose prescribed by the endocrinologist) is reported as “no hypoglycemic effect at all”.

As for “crystalline insulin: crystalline insulin administered subcutaneously as comparison”, the “sugar level higher than the control value” in test [2] (subcutaneous 8 units (volunteer D.), after 30 minutes) worked out at 6%. In addition, the “sugar level below the control level” value in test [2] (subcutaneous 8 units (volunteer D.), after 60 minutes) is 60%. In addition, the “sugar level above the control level” value in test [2] (subcutaneous 8 units (volunteer D.), after 120 minutes) worked out at 20%. Further, the “blood sugar level exceeded the control value” in test [2] (subcutaneous 8 units (volunteer P.), after 30 minutes) is 16%. In test [2] (subcutaneous 8 units (volunteer P.), after 60 minutes), the “blood sugar level below the control value” was 43%. For the same molecule, in test [2] (subcutaneous 8 units (volunteer P.), after 120 minutes), the “blood sugar level below the control” value worked out at 12%. Moreover, the “blood sugar level increased as compared to the initial value” in test [2] (subcutaneous 8 units with 56 g glucose (volunteer D.), after 30 minutes) came out at 86%; in test [2] (subcutaneous 8 units with 56 g glucose (volunteer D.), after 60 minutes), 40%; in test [2] (subcutaneous 8 units with 56 g glucose (volunteer D.), after 120 minutes), 33%; in test [2] (subcutaneous 8 units with 56 g glucose (volunteer P.), after 30 minutes), 87%. The “blood sugar level lowered” value in test [2] (subcutaneous 8 units with 56 g glucose (volunteer P.), after 60 minutes) turned out to be 53%. Besides, in test [2] (subcutaneous 8 units with 56 g glucose (volunteer P.), after 120 minutes), the “blood sugar level relative to the initial level (in words)” value is “returned to the initial level”. The “decrease in the blood sugar level as compared to the control sugar curve” value in test [2] (after 30 minutes) came to 55%; in test [2] (after 60 minutes) it was 18%; in test [2] (after 120 minutes), 34%. Besides, the “sugar level in blood increased relative to the initial value” in test [2] (subcutaneous 16 units with 56 g glucose (after volunteer I.), after 30 minutes) came out at 31%; in test [2] (subcutaneous 16 units with 56 g glucose (after volunteer I.), after 60 minutes) it was 13%. The “sugar level in blood reduced relative to the initial value” in test [2] (subcutaneous 16 units with 56 g glucose (after volunteer I.), after 120 minutes) came out at 7%. In addition, the “time to maximum effect” value in the test on patients is 2 to 5 h.

Values taken from patent publication US4529589A, “Pharmaceutical composition for the treatment of diabetes mellitus” (priority 1981, dated 1985).
